Measured values taken from US9738634B2, “Heterocyclic amide compound and herbicide” (SYNGENTA PARTICIPATIONS AG, priority 2013, dated 2017).

Tests used:
Type in all cases: in vivo
Details in all cases: treatment dosage 320 g/ha
barnyard grass [1] = assay: Test Example 1: weedkilling efficacy, preemergent weed treatment in the submerged state; A: barnyard grass
Procedure, shortened: (§1)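 Pre-emergence application onto floodwater (4 cm, alluvial soil) on the day of sowing, dose expressed as g/ha from diluted emulsion formulation. Weeds sown with 2.5-leaf transplanted rice as crop; plants held at 25–30 °C in greenhouse and scored against assessment criteria after 3 weeks.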

bulrush [2] = assay: Test Example 1: weedkilling efficacy, preemergent weed treatment in the submerged state; B: bulrush
Procedure, shortened: as §1

oval-leafed pondweed [3] = assay: Test Example 1: weedkilling efficacy, preemergent weed treatment in the submerged state; C: oval-leafed pondweed
Procedure, shortened: as §1

transplanted rice = assay: Test Example 1: preemergent weed treatment in the submerged state, effect on crop; a: transplanted rice
Procedure, shortened: as §1

barnyard grass [4] = assay: Test Example 2: weedkilling efficacy, growth period weed treatment in the submerged state; A: barnyard grass
Procedure, shortened: (§2)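 Weeds treated at the 1-2 leaf stage by application of diluted emulsion onto floodwater (4 cm depth, alluvial soil) at specified g/ha. Grown in greenhouse at 25 to 30° C; herbicidal effect rated three weeks after treatment.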

bulrush [5] = assay: Test Example 2: weedkilling efficacy, growth period weed treatment in the submerged state; B: bulrush
Procedure, shortened: as §2

oval-leafed pondweed [6] = assay: Test Example 2: weedkilling efficacy, growth period weed treatment in the submerged state; C: oval-leafed pondweed
Procedure, shortened: as §2

crabgrass [7] = assay: Test Example 3: weedkilling efficacy through soil treatment; D: crabgrass
Procedure, shortened: (§3)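 Crop and weed responses were judged three weeks after a uniform surface spray of the water-diluted emulsion at the given g/ha rate. Seeds sat beneath about 1.5 cm of sterilized diluvial soil, and boxes stood in a greenhouse at 25 to 30° C.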

green foxtail [8] = assay: Test Example 3: weedkilling efficacy through soil treatment; E: green foxtail
Procedure, shortened: as §3

barnyard grass [9] = assay: Test Example 3: weedkilling efficacy through soil treatment; F: barnyard grass
Procedure, shortened: as §3

wild oat [10] = assay: Test Example 3: weedkilling efficacy through soil treatment; G: wild oat
Procedure, shortened: as §3

black-grass [11] = assay: Test Example 3: weedkilling efficacy through soil treatment; H: black-grass
Procedure, shortened: as §3

Italian ryegrass [12] = assay: Test Example 3: weedkilling efficacy through soil treatment; I: Italian ryegrass
Procedure, shortened: as §3

common wind-grass [13] = assay: Test Example 3: weedkilling efficacy through soil treatment; J: common wind-grass
Procedure, shortened: as §3

Indian mallow [14] = assay: Test Example 3: weedkilling efficacy through soil treatment; K: Indian mallow
Procedure, shortened: as §3

redroot pigweed [15] = assay: Test Example 3: weedkilling efficacy through soil treatment; L: redroot pigweed
Procedure, shortened: as §3

fig-leafed goosefoot [16] = assay: Test Example 3: weedkilling efficacy through soil treatment; M: fig-leafed goosefoot
Procedure, shortened: as §3

chickweed [17] = assay: Test Example 3: weedkilling efficacy through soil treatment; N: chickweed
Procedure, shortened: as §3

catchweed [18] = assay: Test Example 3: weedkilling efficacy through soil treatment; O: catchweed
Procedure, shortened: as §3

birds-eye speedwell [19] = assay: Test Example 3: weedkilling efficacy through soil treatment; p: birds-eye speedwell
Procedure, shortened: as §3

directly sown rice [20] = assay: Test Example 3: soil treatment, effect on crop; b: directly sown rice
Procedure, shortened: as §3

corn [21] = assay: Test Example 3: soil treatment, effect on crop; c: corn
Procedure, shortened: as §3

soybean [22] = assay: Test Example 3: soil treatment, effect on crop; d: soybean
Procedure, shortened: as §3

wheat [23] = assay: Test Example 3: soil treatment, effect on crop; e: wheat
Procedure, shortened: as §3

beet [24] = assay: Test Example 3: soil treatment, effect on crop; f: beet
Procedure, shortened: as §3

rapeseed [25] = assay: Test Example 3: soil treatment, effect on crop; g: rapeseed
Procedure, shortened: as §3

crabgrass [26] = assay: Test Example 4: weedkilling efficacy by foliar treatment; D: crabgrass
Procedure, shortened: (§4)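 Seeds are spot-sown into sterilized diluvial soil and covered with about 1.5 cm of soil. After 14 days' greenhouse growth at 25 to 30° C, plants are sprayed on stems and leaves with diluted emulsion at the stated g/ha rate, then scored at 3 weeks.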

green foxtail [27] = assay: Test Example 4: weedkilling efficacy by foliar treatment; E: green foxtail
Procedure, shortened: as §4

barnyard grass [28] = assay: Test Example 4: weedkilling efficacy by foliar treatment; F: barnyard grass
Procedure, shortened: as §4

wild oat [29] = assay: Test Example 4: weedkilling efficacy by foliar treatment; G: wild oat
Procedure, shortened: as §4

black-grass [30] = assay: Test Example 4: weedkilling efficacy by foliar treatment; H: black-grass
Procedure, shortened: as §4

Italian ryegrass [31] = assay: Test Example 4: weedkilling efficacy by foliar treatment; I: Italian ryegrass
Procedure, shortened: as §4

common wind-grass [32] = assay: Test Example 4: weedkilling efficacy by foliar treatment; J: common wind-grass
Procedure, shortened: as §4

Indian mallow [33] = assay: Test Example 4: weedkilling efficacy by foliar treatment; K: Indian mallow
Procedure, shortened: as §4

redroot pigweed [34] = assay: Test Example 4: weedkilling efficacy by foliar treatment; L: redroot pigweed
Procedure, shortened: as §4

fig-leafed goosefoot [35] = assay: Test Example 4: weedkilling efficacy by foliar treatment; M: fig-leafed goosefoot
Procedure, shortened: as §4

chickweed [36] = assay: Test Example 4: weedkilling efficacy by foliar treatment; N: chickweed
Procedure, shortened: as §4

catchweed [37] = assay: Test Example 4: weedkilling efficacy by foliar treatment; O: catchweed
Procedure, shortened: as §4

birds-eye speedwell [38] = assay: Test Example 4: weedkilling efficacy by foliar treatment; p: birds-eye speedwell
Procedure, shortened: as §4

directly sown rice [39] = assay: Test Example 4: foliar treatment, effect on crop; b: directly sown rice
Procedure, shortened: as §4

corn [40] = assay: Test Example 4: foliar treatment, effect on crop; c: corn
Procedure, shortened: as §4

soybean [41] = assay: Test Example 4: foliar treatment, effect on crop; d: soybean
Procedure, shortened: as §4

wheat [42] = assay: Test Example 4: foliar treatment, effect on crop; e: wheat
Procedure, shortened: as §4

beet [43] = assay: Test Example 4: foliar treatment, effect on crop; f: beet
Procedure, shortened: as §4

rapeseed [44] = assay: Test Example 4: foliar treatment, effect on crop; g: rapeseed
Procedure, shortened: as §4

SMILES: CC1=C(c2ccccc2)C(=O)N(C(C)(C)C(=O)Nc2cc(C(F)F)ccn2)CO1 [B-2-54]
- A (barnyard grass) weedkilling efficacy grade (barnyard grass [1]): 5 (weed kill ratio 90% or more, (practically complete withering))
- B (bulrush) weedkilling efficacy grade (bulrush [2]): 5 (weed kill ratio 90% or more, (practically complete withering))
- C (oval-leafed pondweed) weedkilling efficacy grade (oval-leafed pondweed [3]): 5 (weed kill ratio 90% or more, (practically complete withering))
- a (transplanted rice) effect on crop grade (transplanted rice): 5 (weed kill ratio 90% or more, (practically complete withering))
- A (barnyard grass) weedkilling efficacy grade (barnyard grass [4]): 5 (weed kill ratio 90% or more, (practically complete withering))
- B (bulrush) weedkilling efficacy grade (bulrush [5]): 5 (weed kill ratio 90% or more, (practically complete withering))
- C (oval-leafed pondweed) weedkilling efficacy grade (oval-leafed pondweed [6]): 5 (weed kill ratio 90% or more, (practically complete withering))
- D (crabgrass) weedkilling efficacy grade (crabgrass [7]): 5 (weed kill ratio 90% or more, (practically complete withering))
- E (green foxtail) weedkilling efficacy grade (green foxtail [8]): 5 (weed kill ratio 90% or more, (practically complete withering))
- F (barnyard grass) weedkilling efficacy grade (barnyard grass [9]): 5 (weed kill ratio 90% or more, (practically complete withering))
- G (wild oat) weedkilling efficacy grade (wild oat [10]): 5 (weed kill ratio 90% or more, (practically complete withering))
- H (black-grass) weedkilling efficacy grade (black-grass [11]): 5 (weed kill ratio 90% or more, (practically complete withering))
- I (Italian ryegrass) weedkilling efficacy grade (Italian ryegrass [12]): 5 (weed kill ratio 90% or more, (practically complete withering))
- J (common wind-grass) weedkilling efficacy grade (common wind-grass [13]): 5 (weed kill ratio 90% or more, (practically complete withering))
- K (Indian mallow) weedkilling efficacy grade (Indian mallow [14]): 3 (weed kill ratio 40% or more, less than 70%)
- L (redroot pigweed) weedkilling efficacy grade (redroot pigweed [15]): 4 (weed kill ratio 70% or more, less than 90%)
- M (fig-leafed goosefoot) weedkilling efficacy grade (fig-leafed goosefoot [16]): 3 (weed kill ratio 40% or more, less than 70%)
- N (chickweed) weedkilling efficacy grade (chickweed [17]): 4 (weed kill ratio 70% or more, less than 90%)
- O (catchweed) weedkilling efficacy grade (catchweed [18]): 4 (weed kill ratio 70% or more, less than 90%)
- P (birds-eye speedwell) weedkilling efficacy grade (birds-eye speedwell [19]): 5 (weed kill ratio 90% or more, (practically complete withering))
- b (directly sown rice) effect on crop grade (directly sown rice [20]): 5 (weed kill ratio 90% or more, (practically complete withering))
- c (corn) effect on crop grade (corn [21]): 2 (weed kill ratio 20% or more, less than 40%)
- d (soybean) effect on crop grade (soybean [22]): 0 (weed kill ratio 5% or less (practically no effect))
- e (wheat) effect on crop grade (wheat [23]): 0 (weed kill ratio 5% or less (practically no effect))
- f (beet) effect on crop grade (beet [24]): 4 (weed kill ratio 70% or more, less than 90%)
- g (rapeseed) effect on crop grade (rapeseed [25]): 4 (weed kill ratio 70% or more, less than 90%)
- D (crabgrass) weedkilling efficacy grade (crabgrass [26]): 5 (weed kill ratio 90% or more, (practically complete withering))
- E (green foxtail) weedkilling efficacy grade (green foxtail [27]): 5 (weed kill ratio 90% or more, (practically complete withering))
- F (barnyard grass) weedkilling efficacy grade (barnyard grass [28]): 5 (weed kill ratio 90% or more, (practically complete withering))
- G (wild oat) weedkilling efficacy grade (wild oat [29]): 5 (weed kill ratio 90% or more, (practically complete withering))
- H (black-grass) weedkilling efficacy grade (black-grass [30]): 5 (weed kill ratio 90% or more, (practically complete withering))
- I (Italian ryegrass) weedkilling efficacy grade (Italian ryegrass [31]): 5 (weed kill ratio 90% or more, (practically complete withering))
- J (common wind-grass) weedkilling efficacy grade (common wind-grass [32]): 5 (weed kill ratio 90% or more, (practically complete withering))
- K (Indian mallow) weedkilling efficacy grade (Indian mallow [33]): 4 (weed kill ratio 70% or more, less than 90%)
- L (redroot pigweed) weedkilling efficacy grade (redroot pigweed [34]): 4 (weed kill ratio 70% or more, less than 90%)
- M (fig-leafed goosefoot) weedkilling efficacy grade (fig-leafed goosefoot [35]): 4 (weed kill ratio 70% or more, less than 90%)
- N (chickweed) weedkilling efficacy grade (chickweed [36]): 4 (weed kill ratio 70% or more, less than 90%)
- O (catchweed) weedkilling efficacy grade (catchweed [37]): 4 (weed kill ratio 70% or more, less than 90%)
- P (birds-eye speedwell) weedkilling efficacy grade (birds-eye speedwell [38]): 4 (weed kill ratio 70% or more, less than 90%)
- b (directly sown rice) effect on crop grade (directly sown rice [39]): 5 (weed kill ratio 90% or more, (practically complete withering))
- c (corn) effect on crop grade (corn [40]): 3 (weed kill ratio 40% or more, less than 70%)
- d (soybean) effect on crop grade (soybean [41]): 4 (weed kill ratio 70% or more, less than 90%)
- e (wheat) effect on crop grade (wheat [42]): 0 (weed kill ratio 5% or less (practically no effect))
- f (beet) effect on crop grade (beet [43]): 4 (weed kill ratio 70% or more, less than 90%)
- g (rapeseed) effect on crop grade (rapeseed [44]): 4 (weed kill ratio 70% or more, less than 90%)
